Legend:
Adenosine receptor A3 = target: T1, Adenosine receptor A3 (Homo sapiens, UniProt P0DMS8)
T1 sequence (P0DMS8 whole entry): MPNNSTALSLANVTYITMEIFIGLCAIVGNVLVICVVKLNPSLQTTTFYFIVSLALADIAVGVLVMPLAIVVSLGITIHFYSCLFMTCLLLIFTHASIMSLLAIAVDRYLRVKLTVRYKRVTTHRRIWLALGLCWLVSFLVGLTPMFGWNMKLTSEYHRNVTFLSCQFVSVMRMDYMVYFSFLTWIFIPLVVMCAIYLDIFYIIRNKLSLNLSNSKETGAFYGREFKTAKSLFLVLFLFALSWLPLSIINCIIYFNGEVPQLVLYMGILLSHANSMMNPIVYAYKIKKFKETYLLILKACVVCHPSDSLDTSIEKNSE

Cannabinoid receptor 1 [1] = target: T2, Cannabinoid receptor 1 (Homo sapiens, UniProt P21554); type: functional, cell-based
Endothelin-1 receptor = target: T3, Endothelin-1 receptor (Homo sapiens, UniProt P25101)
T3 sequence (P25101 whole entry): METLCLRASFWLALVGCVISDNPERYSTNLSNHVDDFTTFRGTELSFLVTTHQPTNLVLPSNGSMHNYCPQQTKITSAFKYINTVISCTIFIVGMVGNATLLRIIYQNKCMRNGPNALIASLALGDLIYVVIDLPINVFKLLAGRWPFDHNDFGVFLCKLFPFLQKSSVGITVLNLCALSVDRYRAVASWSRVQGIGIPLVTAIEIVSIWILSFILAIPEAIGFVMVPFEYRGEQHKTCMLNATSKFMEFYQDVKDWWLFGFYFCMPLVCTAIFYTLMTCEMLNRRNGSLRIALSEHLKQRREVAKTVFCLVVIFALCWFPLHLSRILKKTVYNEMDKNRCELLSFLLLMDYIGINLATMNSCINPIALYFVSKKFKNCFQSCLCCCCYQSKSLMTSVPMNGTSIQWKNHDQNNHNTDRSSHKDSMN

[2] = target: T4, 5-hydroxytryptamine receptor 1A (Homo sapiens, UniProt P08908); type: functional, cell-based
T4 sequence (P08908 whole entry): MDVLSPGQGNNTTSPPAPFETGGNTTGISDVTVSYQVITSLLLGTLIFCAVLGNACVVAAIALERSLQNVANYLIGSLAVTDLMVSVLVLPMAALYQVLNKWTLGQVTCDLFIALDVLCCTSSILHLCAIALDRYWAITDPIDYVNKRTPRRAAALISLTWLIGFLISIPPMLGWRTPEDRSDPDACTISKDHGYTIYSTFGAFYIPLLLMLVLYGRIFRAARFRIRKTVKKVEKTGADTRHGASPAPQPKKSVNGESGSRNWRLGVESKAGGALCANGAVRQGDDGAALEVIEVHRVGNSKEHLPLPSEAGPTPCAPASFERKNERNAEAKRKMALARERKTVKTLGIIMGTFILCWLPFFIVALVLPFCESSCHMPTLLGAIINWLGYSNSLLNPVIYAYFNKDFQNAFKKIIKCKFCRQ

[3] = target: Growth hormone secretagogue receptor type 1 (Homo sapiens, UniProt Q92847)
[4] = target: Voltage-dependent L-type calcium channel subunit alpha-1C (Rattus norvegicus, UniProt P22002); type: functional
[5] = target: 3',5'-cyclic-AMP phosphodiesterase 4D (Homo sapiens, UniProt Q08499); type: functional
[6] = target: T4, 5-hydroxytryptamine receptor 1A; type: functional, cell-based; remark: listed apart in the source
Cannabinoid receptor 1 [7] = target: T2, Cannabinoid receptor 1; type: functional, cell-based; remark: listed apart in the source
[8] = target: T5, Equilibrative nucleoside transporter 1 (Homo sapiens, UniProt Q99808)
T5 sequence (Q99808 whole entry): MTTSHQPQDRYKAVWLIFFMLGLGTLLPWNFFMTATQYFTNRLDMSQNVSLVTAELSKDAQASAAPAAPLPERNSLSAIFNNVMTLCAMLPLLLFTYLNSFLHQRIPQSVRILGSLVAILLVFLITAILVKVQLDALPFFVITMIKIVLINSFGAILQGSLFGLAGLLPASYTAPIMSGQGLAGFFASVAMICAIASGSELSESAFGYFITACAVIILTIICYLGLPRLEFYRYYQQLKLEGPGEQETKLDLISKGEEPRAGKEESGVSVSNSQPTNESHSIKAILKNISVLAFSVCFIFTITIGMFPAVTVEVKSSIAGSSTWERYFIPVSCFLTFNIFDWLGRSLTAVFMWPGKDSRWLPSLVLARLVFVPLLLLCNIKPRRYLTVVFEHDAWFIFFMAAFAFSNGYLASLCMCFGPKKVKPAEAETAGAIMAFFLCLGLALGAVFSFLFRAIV

[9] = target: Glutamate receptor ionotropic, NMDA 1 (Rattus norvegicus, UniProt P35439)
Vasopressin V2 receptor = Vasopressin V2 receptor (Homo sapiens, UniProt P30518)
Mu-type opioid receptor = Mu-type opioid receptor (Homo sapiens, UniProt P35372); test: biochemical; type: functional
[10] = target: T6, 5-hydroxytryptamine receptor 2B (Homo sapiens, UniProt P41595); type: functional, cell-based
[11] = target: T6, 5-hydroxytryptamine receptor 2B; type: functional, cell-based; remark: listed apart in the source
[12] = target: T7, Muscarinic acetylcholine receptor M1 (Homo sapiens, UniProt P11229); type: functional
T7 sequence (P11229 whole entry): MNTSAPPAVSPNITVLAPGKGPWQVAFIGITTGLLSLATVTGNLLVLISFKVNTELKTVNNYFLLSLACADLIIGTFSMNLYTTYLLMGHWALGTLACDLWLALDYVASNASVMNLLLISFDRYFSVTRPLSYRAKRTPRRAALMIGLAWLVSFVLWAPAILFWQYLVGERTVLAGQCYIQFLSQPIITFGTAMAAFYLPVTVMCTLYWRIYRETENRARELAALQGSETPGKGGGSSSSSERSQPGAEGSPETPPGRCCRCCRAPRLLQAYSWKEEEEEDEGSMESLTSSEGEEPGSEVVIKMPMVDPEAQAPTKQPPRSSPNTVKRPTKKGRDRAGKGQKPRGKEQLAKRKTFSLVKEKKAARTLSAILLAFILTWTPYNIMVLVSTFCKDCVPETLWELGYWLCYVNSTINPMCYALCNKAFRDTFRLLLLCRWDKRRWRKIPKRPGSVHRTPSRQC
Note: assay procedure not described here.

Vasopressin V2 receptor, sequence (P30518 whole entry): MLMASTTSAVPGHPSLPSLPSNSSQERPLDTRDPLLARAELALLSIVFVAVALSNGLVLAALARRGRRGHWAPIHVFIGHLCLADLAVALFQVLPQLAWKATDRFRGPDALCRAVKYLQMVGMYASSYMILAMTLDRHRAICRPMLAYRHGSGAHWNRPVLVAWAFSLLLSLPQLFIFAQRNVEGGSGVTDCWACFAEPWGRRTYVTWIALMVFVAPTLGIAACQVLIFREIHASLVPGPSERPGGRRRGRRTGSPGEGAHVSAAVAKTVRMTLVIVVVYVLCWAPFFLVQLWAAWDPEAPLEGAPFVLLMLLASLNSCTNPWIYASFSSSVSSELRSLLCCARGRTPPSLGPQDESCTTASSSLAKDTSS
3',5'-cyclic-AMP phosphodiesterase 4D, sequence (Q08499 whole entry): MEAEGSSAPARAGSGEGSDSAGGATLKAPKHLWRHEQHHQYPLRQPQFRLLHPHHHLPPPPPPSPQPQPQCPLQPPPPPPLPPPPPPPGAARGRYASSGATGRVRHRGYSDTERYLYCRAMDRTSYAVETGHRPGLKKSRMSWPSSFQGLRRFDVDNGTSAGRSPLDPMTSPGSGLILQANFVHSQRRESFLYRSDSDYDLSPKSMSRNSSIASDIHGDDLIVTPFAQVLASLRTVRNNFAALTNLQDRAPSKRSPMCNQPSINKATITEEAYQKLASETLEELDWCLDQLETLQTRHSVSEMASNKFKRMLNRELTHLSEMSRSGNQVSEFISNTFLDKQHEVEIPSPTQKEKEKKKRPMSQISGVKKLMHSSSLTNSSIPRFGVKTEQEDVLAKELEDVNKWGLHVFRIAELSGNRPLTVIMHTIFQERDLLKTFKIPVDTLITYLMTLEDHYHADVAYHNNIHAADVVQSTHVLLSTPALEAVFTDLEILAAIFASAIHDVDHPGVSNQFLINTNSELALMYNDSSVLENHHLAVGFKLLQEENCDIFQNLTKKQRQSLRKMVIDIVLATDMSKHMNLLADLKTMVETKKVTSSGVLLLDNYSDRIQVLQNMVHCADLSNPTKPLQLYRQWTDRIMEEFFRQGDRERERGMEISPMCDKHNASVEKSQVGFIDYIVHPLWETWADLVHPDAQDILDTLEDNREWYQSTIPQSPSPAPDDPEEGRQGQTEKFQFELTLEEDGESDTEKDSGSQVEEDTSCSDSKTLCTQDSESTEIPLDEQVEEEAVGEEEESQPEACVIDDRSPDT
T2 sequence (P21554 whole entry): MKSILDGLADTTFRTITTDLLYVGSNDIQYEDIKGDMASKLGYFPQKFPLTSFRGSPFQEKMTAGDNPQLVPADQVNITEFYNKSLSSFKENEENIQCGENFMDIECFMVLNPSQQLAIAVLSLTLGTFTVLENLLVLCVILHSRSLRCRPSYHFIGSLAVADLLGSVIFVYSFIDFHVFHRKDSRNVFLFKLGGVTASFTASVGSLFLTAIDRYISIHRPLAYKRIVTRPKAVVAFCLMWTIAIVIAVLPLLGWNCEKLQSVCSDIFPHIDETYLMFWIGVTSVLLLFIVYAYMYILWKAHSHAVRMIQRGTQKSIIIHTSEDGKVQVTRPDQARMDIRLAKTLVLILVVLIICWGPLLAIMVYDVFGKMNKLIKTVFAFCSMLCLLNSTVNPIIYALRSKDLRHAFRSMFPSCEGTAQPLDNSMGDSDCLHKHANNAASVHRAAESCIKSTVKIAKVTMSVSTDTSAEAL
Growth hormone secretagogue receptor type 1, sequence (Q92847 whole entry): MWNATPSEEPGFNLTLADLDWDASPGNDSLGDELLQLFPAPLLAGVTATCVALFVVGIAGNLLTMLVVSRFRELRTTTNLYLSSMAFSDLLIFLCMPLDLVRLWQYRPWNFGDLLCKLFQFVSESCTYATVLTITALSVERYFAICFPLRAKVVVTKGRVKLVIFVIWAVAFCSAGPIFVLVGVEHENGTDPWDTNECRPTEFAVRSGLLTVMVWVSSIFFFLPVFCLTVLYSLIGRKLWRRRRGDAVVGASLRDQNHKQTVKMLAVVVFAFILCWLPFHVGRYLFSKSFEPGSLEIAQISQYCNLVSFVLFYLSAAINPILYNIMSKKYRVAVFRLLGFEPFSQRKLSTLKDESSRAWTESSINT
Voltage-dependent L-type calcium channel subunit alpha-1C, sequence (P22002 whole entry): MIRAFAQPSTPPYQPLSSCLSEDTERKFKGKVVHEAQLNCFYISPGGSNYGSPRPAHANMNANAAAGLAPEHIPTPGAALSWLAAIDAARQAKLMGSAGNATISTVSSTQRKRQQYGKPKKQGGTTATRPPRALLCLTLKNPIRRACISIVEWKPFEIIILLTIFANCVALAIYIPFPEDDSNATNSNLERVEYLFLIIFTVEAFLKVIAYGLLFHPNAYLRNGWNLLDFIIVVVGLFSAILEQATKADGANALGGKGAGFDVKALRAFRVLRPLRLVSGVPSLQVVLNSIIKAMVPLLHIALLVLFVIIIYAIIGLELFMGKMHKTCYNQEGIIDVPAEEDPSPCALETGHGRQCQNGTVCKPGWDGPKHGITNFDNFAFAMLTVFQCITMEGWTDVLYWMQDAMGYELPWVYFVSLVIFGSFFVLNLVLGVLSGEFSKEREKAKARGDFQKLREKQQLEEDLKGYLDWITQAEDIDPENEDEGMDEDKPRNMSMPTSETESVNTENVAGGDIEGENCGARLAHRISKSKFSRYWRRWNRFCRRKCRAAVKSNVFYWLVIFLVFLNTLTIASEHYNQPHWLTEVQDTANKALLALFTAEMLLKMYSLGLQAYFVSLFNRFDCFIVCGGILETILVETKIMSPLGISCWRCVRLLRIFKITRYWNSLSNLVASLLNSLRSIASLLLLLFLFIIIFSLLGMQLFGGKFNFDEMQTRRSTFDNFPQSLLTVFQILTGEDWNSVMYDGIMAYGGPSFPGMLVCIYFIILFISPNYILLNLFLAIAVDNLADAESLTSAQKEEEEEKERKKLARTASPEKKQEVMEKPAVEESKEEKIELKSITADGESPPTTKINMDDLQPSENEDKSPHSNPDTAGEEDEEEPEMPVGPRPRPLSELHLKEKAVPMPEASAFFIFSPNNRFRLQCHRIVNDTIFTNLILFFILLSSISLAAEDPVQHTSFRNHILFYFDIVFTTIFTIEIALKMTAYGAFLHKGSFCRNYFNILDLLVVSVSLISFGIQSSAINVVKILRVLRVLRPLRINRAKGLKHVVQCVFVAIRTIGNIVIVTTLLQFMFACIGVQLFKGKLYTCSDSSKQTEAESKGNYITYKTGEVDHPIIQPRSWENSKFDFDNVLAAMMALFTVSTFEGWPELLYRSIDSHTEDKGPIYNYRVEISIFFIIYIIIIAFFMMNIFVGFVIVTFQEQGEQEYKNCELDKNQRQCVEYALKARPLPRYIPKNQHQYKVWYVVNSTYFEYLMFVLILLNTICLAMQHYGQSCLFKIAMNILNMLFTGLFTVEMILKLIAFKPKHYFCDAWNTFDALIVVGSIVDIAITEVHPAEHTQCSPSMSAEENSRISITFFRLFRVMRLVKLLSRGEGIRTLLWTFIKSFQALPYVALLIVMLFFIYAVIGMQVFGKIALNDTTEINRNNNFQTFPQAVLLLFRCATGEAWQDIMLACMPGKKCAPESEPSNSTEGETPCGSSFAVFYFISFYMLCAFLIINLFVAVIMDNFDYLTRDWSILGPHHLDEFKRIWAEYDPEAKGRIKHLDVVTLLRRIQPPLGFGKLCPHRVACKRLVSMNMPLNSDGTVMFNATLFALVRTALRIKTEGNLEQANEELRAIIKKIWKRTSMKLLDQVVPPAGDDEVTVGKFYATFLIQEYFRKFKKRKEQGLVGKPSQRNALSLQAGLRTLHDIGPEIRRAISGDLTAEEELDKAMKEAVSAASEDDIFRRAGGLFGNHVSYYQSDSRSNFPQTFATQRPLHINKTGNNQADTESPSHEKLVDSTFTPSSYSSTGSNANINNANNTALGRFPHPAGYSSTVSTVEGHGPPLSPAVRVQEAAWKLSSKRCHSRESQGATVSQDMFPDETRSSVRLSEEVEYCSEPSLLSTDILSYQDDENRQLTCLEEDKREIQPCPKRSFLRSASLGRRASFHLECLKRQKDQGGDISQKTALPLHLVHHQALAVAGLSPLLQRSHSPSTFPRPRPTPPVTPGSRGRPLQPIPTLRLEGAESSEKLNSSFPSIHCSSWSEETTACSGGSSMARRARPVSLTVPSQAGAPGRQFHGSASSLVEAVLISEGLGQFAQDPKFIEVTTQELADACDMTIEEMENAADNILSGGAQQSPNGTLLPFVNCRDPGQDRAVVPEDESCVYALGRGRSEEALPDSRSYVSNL
Mu-type opioid receptor, sequence (P35372 whole entry): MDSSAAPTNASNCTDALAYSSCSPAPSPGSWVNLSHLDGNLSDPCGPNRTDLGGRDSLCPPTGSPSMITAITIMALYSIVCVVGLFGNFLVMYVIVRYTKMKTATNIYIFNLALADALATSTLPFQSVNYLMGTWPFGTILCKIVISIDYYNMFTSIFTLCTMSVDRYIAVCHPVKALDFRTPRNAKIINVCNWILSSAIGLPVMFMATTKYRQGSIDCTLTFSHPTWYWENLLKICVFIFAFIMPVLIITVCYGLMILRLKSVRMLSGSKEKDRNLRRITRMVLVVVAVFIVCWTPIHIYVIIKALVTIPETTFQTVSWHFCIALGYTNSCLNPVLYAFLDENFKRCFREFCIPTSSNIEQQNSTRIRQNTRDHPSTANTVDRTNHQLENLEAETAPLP
T6 sequence (P41595 whole entry): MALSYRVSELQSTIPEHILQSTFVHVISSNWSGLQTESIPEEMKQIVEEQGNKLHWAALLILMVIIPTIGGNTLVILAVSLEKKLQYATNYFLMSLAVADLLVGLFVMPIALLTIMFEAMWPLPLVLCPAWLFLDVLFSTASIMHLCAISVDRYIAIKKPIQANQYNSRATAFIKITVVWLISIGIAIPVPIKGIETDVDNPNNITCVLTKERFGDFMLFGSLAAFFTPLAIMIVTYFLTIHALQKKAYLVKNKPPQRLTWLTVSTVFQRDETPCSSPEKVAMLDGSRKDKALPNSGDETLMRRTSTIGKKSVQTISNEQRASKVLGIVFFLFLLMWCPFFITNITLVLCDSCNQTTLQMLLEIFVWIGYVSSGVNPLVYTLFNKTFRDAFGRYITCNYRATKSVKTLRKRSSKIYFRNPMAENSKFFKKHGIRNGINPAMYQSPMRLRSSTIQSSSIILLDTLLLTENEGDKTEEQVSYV

SMILES | AC50 (Adenosine receptor A3) | AC50 (Cannabinoid receptor 1 [1]) | AC50 (Endothelin-1 receptor) | AC50 [2] | AC50 [3] | AC50 [4] | AC50 [5] | AC50 [6] | AC50 (Cannabinoid receptor 1 [7]) | AC50 [8] | AC50 [9] | AC50 (Vasopressin V2 receptor) | AC50 (Mu-type opioid receptor) | AC50 [10] | AC50 [11] | AC50 [12]
CC(C)c1c(C(=O)Nc2ccccc2)c(-c2ccccc2)c(-c2ccc(F)cc2)n1CC[C@@H](O)C[C@@H](O)CC(=O)O [ATORVASTATIN] | > 30 µM | > 30 µM | > 30 µM | > 10 µM | > 30 µM | > 10 µM | > 30 µM | > 10 µM | > 30 µM | > 30 µM | > 10 µM | > 30 µM | – | – | – | –
CC(=O)O[C@@]12CO[C@@H]1C[C@H](O)[C@@]1(C)C(=O)[C@H](O)C3=C(C)[C@@H](OC(=O)[C@H](O)[C@@H](NC(=O)OC(C)(C)C)c4ccccc4)C[C@@](O)([C@@H](OC(=O)c4ccccc4)[C@H]21)C3(C)C [DOCETAXEL ANHYDROUS] | > 30 µM | – | – | > 30 µM | > 30 µM | > 30 µM | > 30 µM | > 30 µM | – | > 30 µM | > 30 µM | > 30 µM | > 30 µM | > 30 µM | > 30 µM | –
CN[C@@H](C)[C@H](O)c1ccccc1 [EPHEDRINE] | > 30 µM | > 30 µM | > 30 µM | > 10 µM | > 30 µM | > 10 µM | > 30 µM | > 10 µM | > 30 µM | > 30 µM | > 10 µM | > 30 µM | – | > 10 µM | > 10 µM | > 10 µM
CCNC(C)Cc1cccc(C(F)(F)F)c1 (stereo not given) [FENFLURAMINE] | > 30 µM | > 30 µM | > 30 µM | – | > 30 µM | > 10 µM | > 30 µM | – | > 30 µM | > 30 µM | > 10 µM | > 30 µM | – | – | – | –
COc1c(N2CCNC(C)C2)c(F)cc2c(=O)c(C(=O)O)cn(C3CC3)c12 (stereo not given) [GATIFLOXACIN] | > 10 µM | – | – | > 10 µM | > 10 µM | > 10 µM | > 30 µM | > 10 µM | – | > 10 µM | > 10 µM | > 10 µM | 28 µM | > 10 µM | > 10 µM | –
CCN1CCC[C@H]1CNC(=O)c1cc(S(N)(=O)=O)ccc1OC [LEVOSULPIRIDE] | > 30 µM | > 30 µM | – | – | > 30 µM | > 10 µM | > 30 µM | > 30 µM | > 30 µM | – | > 10 µM | > 30 µM | – | > 10 µM | > 10 µM | –
COc1ccccc1OCC(O)COC(N)=O (stereo not given) [METHOCARBAMOL] | > 10 µM | – | – | > 10 µM | > 10 µM | > 10 µM | > 30 µM | > 10 µM | – | > 10 µM | > 10 µM | > 10 µM | – | > 10 µM | > 10 µM | –
NC(=O)C[S+]([O-])C(c1ccccc1)c1ccccc1 (stereo not given) [MODAFINIL] | 13.4 µM | > 30 µM | > 30 µM | > 10 µM | > 30 µM | > 10 µM | > 30 µM | > 10 µM | > 30 µM | > 30 µM | > 10 µM | > 30 µM | – | > 10 µM | > 10 µM | –
CCN(CC)CCOC(=O)c1ccc(N)cc1 [PROCAINE] | > 30 µM | > 30 µM | – | – | > 30 µM | > 10 µM | > 10 µM | > 30 µM | > 30 µM | > 30 µM | > 10 µM | > 30 µM | – | > 10 µM | > 10 µM | –
CCCOc1ccc(C(=O)OCCN(CC)CC)cc1N [PROPARACAINE] | > 30 µM | > 30 µM | > 30 µM | – | > 30 µM | – | > 30 µM | > 30 µM | > 30 µM | > 30 µM | > 30 µM | > 30 µM | > 30 µM | > 30 µM | > 30 µM | –
C#CCN[C@@H]1CCc2ccccc21 [RASAGILINE] | > 30 µM | – | – | > 30 µM | > 30 µM | > 30 µM | > 30 µM | > 30 µM | – | > 30 µM | > 30 µM | > 30 µM | > 30 µM | > 30 µM | > 30 µM | > 30 µM
C#CCN(C)[C@H](C)Cc1ccccc1 [SELEGILINE] | > 10 µM | > 30 µM | – | – | > 10 µM | > 10 µM | > 30 µM | > 10 µM | > 30 µM | > 10 µM | > 10 µM | > 10 µM | – | > 10 µM | > 10 µM | –
CN[C@@H]1[C@H](O)[C@H](NC)[C@H]2O[C@@]3(O)C(=O)C[C@@H](C)O[C@H]3O[C@@H]2[C@H]1O [SPECTINOMYCIN] | > 10 µM | – | – | > 30 µM | > 10 µM | > 10 µM | > 30 µM | > 30 µM | – | > 10 µM | > 10 µM | > 10 µM | – | > 30 µM | > 30 µM | –
CC[C@]1(O)C[C@@H]2CN(CCc3c([nH]c4ccccc34)[C@@](C(=O)OC)(c3cc4c(cc3OC)N(C)[C@H]3[C@@](O)(C(N)=O)[C@H](O)[C@]5(CC)C=CCN6CC[C@]43[C@@H]65)C2)C1 [VINDESINE] | > 30 µM | – | > 30 µM | – | 6.5 µM | > 30 µM | > 30 µM | > 30 µM | – | > 30 µM | > 30 µM | > 30 µM | > 30 µM | > 30 µM | > 30 µM | –

From ChEMBL document CHEMBL5291721, “A preclinical secondary pharmacology resource illuminates target-adverse drug reaction associations of marketed drugs” (Nat Commun, 2023)
